What was measured:
[1] = test system: p-S6K, p-S6, LC3; test: Cell signaling assay, western blot, SW480; format: cell-based, human; details: 0, 5, and 10 μM, FIG. 7a
Experimental: Cells treated with various concentrations (0, 5, and 10 μM) of lomitapide were lysed with RIPA buffer containing a protease-inhibitor cocktail. The whole-cell lysate was incubated on ice for 30 minutes. After centrifugation at 4° C. and 13,300×g for 15 minutes, the supernatant was collected. For use as controls, HCT116, SW480, HT29, MDA-MB-231, and MDA-MB-468 cells were treated with 1 μM of torin, known as an mTOR inhibitor.
For western blot analysis, the supernatant was loaded onto 10% SDS-PAGE gel. The separated proteins were blotted onto a PVDF membrane. Then, the blots were incubated with antibodies at 4° C. for 12 hours as follows (Table 2).
Then, the blots were washed with TBST (a mixture of tris-buffered saline (TBS) and Tween 20), incubated with horseradish peroxidase-conjugated secondary antibody (Cell signaling) at 37° C. for 1 hour, and washed, followed by detecting enhanced chemiluminescence (ECL; Amersham).

[2] = test system: MC38 colorectal cancer; test: Mouse homograft tumor model, MC38 colorectal cancer; format: in vivo; details: MC38 in C57B6/N mice
Experimental: For mouse homograft tumor model, experiments were conducted using female C57B6/N mice (wild-type, 6 weeks old) with MC38 colorectal cancer and B16F10 melanoma cell lines. MC38 colorectal cancer and B16F10 melanoma cell lines were each subcutaneously injected at a dose of 2×10^5 cells. Lomitapide used in the two models was formulated with 45% saline, 40% PEG300, 5% Tween-80, and 10% DMSO.
From 10 days after the DMC38 colorectal cancer cells injection, lomitapide was intraperitoneally injected five times at a dose of 20 mg/kg, and anti-PD-1 mAb (clone RMP1-14, BioXCell, West Lebanon, NH, USA) or rat IgG2a iso-type control (clone 2A3, BioXCell, BE0089) in PBS was administered at a dose of 10 mg/kg at days 1, 4, 7, and 10 (FIGS. 18a and 18b).

[3] = test system: MDA MB 231; test: Cell viability, CellTiterGlo, 72 hours; format: cell-based; details: Homo sapiens, MDA MB 231 cells, Breast
Experimental: (§1) In addition to the colorectal cells, 120 cancer cell lines treated with various concentrations of lomitapide were assayed for viability. To analyze cell viability, the cells were incubated with lomitapide at 37° C. for 72 hours in a 5% or 10% CO2 atmosphere and then equilibrated at room temperature for 1 hour, followed by addition of CellTiterGlo reagent (Promega). One hour later, luminescence was measured to calculate cell viability (%). The 120 cell lines were purchased from ATCC (American Type Culture Collection, Virginia, USA).

[4] = test system: NCI-H1581; test: Cell viability, CellTiterGlo, 72 hours; format: cell-based; details: Homo sapiens, NCI-H1581 cells, Lung
Experimental: as §1

[5] = test system: T98G; test: Cell viability, CellTiterGlo, 72 hours; format: cell-based; details: Homo sapiens, T98G cells, Brain
Experimental: as §1

[6] = test system: NCI-H441; test: Cell viability, CellTiterGlo, 72 hours; format: cell-based; details: Homo sapiens, NCI-H441 cells, Lung
Experimental: as §1

[7] = test system: PC3; test: Cell viability, CellTiterGlo, 72 hours; format: cell-based; details: Homo sapiens, PC-3, PC3 cells, Prostate
Experimental: as §1

[8] = test system: SK-N-MC; test: Cell viability, CellTiterGlo, 72 hours; format: cell-based; details: Homo sapiens, SK-N-MC cells, Brain
Experimental: as §1

[9] = test system: U-937; test: Cell viability, CellTiterGlo, 72 hours; format: cell-based; details: Homo sapiens, U-937 cells, Blood
Experimental: as §1

[10] = test system: SK-ES-1; test: Cell viability, CellTiterGlo, 72 hours; format: cell-based; details: Homo sapiens, SK-ES1, SK-ES-1 cells, Bone
Experimental: as §1

[11] = test system: OCI-AML3; test: Cell viability, CellTiterGlo, 72 hours; format: cell-based; details: Homo sapiens, OCI-AML-3, OCI-AML3 cells, Blood
Experimental: as §1

[12] = test system: NCI-H1838; test: Cell viability, CellTiterGlo, 72 hours; format: cell-based; details: Homo sapiens, NCI-H1838 cells, Lung
Experimental: as §1

[13] = test system: KG-1; test: Cell viability, CellTiterGlo, 72 hours; format: cell-based; details: Homo sapiens, KG-1 cells, Blood
Experimental: as §1

[14] = test system: MCAS; test: Cell viability, CellTiterGlo, 72 hours; format: cell-based; details: MCAS cells, Ovary
Experimental: as §1

[15] = test system: HEC-1-B; test: Cell viability, CellTiterGlo, 72 hours; format: cell-based; details: Homo sapiens, HEC-1-B cells, Endometrium
Experimental: as §1

[16] = test system: KMS-12-BM; test: Cell viability, CellTiterGlo, 72 hours; format: cell-based; details: Homo sapiens, KMS-12-BM cells, Blood
Experimental: as §1

[17] = test system: MV4-11; test: Cell viability, CellTiterGlo, 72 hours; format: cell-based; details: Homo sapiens, MV4-11 cells, Blood
Experimental: as §1

[18] = test system: H4; test: Cell viability, CellTiterGlo, 72 hours; format: cell-based; details: H4 cells, Brain
Experimental: as §1

[19] = test system: U2OS; test: Cell viability, CellTiterGlo, 72 hours; format: cell-based; details: Homo sapiens, U2OS cells, Bone
Experimental: as §1

[20] = test system: U87MG; test: Cell viability, CellTiterGlo, 72 hours; format: cell-based; details: Homo sapiens, U-87 MG, U87MG cells, Brain
Experimental: as §1

[21] = test system: HCT-15; test: Cell viability, CellTiterGlo, 72 hours; format: cell-based; details: Homo sapiens, HCT-15 cells, Colon
Experimental: as §1

[22] = test system: NCI-H1048; test: Cell viability, CellTiterGlo, 72 hours; format: cell-based; details: Homo sapiens, NCI-H1048 cells, Lung
Experimental: as §1

[23] = test system: MKN-45; test: Cell viability, CellTiterGlo, 72 hours; format: cell-based; details: Homo sapiens, MKN-45 cells, Stomach
Experimental: as §1

[24] = test system: RKO; test: Cell viability, CellTiterGlo, 72 hours; format: cell-based; details: Homo sapiens, RKO cells, Colon
Experimental: as §1

[25] = test system: RL95-2; test: Cell viability, CellTiterGlo, 72 hours; format: cell-based; details: Homo sapiens, RL95-2 cells, Endometrium
Experimental: as §1

[26] = test system: P31/FUJ; test: Cell viability, CellTiterGlo, 72 hours; format: cell-based; details: Homo sapiens, P31/FUJ cells, Blood
Experimental: as §1

[27] = test system: JIMT-1; test: Cell viability, CellTiterGlo, 72 hours; format: cell-based; details: Homo sapiens, JIMT-1 cells, Breast
Experimental: as §1

[28] = test system: NCI-H2286; test: Cell viability, CellTiterGlo, 72 hours; format: cell-based; details: Homo sapiens, NCI-H2286 cells, Lung
Experimental: as §1

Structure (SMILES): O=C(NC1CCN(CCCCC2(C(=O)NCC(F)(F)F)c3ccccc3-c3ccccc32)CC1)c1ccccc1-c1ccc(C(F)(F)F)cc1 [lomitapide, N-(2,2,2-trifluoroethyl)-9-[4-[4-[[[4′-(trifluoromethyl)[1,1′-biphenyl]2-yl]carbonyl]amino]-1-piperidinyl]butyl]-9H-fluoren-9-carboxamide]
- conversion from LC3I into LC3II [1]: increased induction of conversion from LC3I into LC3II
- phosphorylation levels of target proteins (p-S6K and p-S6) [1]: remarkably decreased phosphorylation levels
- tumor growth compared to the groups treated with the anti-PD-1 mAb ([2]; lomitapide 20 mg/kg i.p., anti-PD-1 mAb 10 mg/kg): greatly suppressed and reduced
- tumor growth compared to the control ([2]; lomitapide 20 mg/kg intraperitoneally five times): significantly suppressed and reduced tumor growth
- IC50 [3]: 3.2 µM
- IC50 [4]: 3.7 µM
- IC50 [5]: 3.8 µM
- IC50 [6]: 3.2 µM
- IC50 [7]: 4.3 µM
- IC50 [8]: 2.4 µM
- IC50 [9]: 2.3 µM
- IC50 [10]: 3.5 µM
- IC50 [11]: 2.1 µM
- IC50 [12]: 4 µM
- IC50 [13]: 5.7 µM
- IC50 [14]: 4.5 µM
- IC50 [15]: 6.9 µM
- IC50 [16]: 3.5 µM
- IC50 [17]: 6.2 µM
- IC50 [18]: 4.6 µM
- IC50 [19]: 2.8 µM
- IC50 [20]: 3.1 µM
- IC50 [21]: 3.5 µM
- IC50 [22]: 5.5 µM
- IC50 [23]: 3.9 µM
- IC50 [24]: 3.3 µM
- IC50 [25]: 3.2 µM
- IC50 [26]: 3.1 µM
- IC50 [27]: 3.3 µM
- IC50 [28]: 3.4 µM
